This is an account of results in EP2338876A1, “Tamsulosin adipate for pharmaceutical use” (LEK Pharmaceuticals d.d., priority 2009, dated 2011).

Common to all, as to format: physicochemical
Data set [1] is described as follows: Solid-state stability at ambient and at low relative humidity. The procedure: Tamsulosin adipate dihydrate from Example 9 (1.0 g), is stayed in an open dish in an airtight chamber at temperature of 25 °C and relative humidity of below 10 % (achieved by means of dry desiccant) for 3 days.
A short description of data set [2]: Solid-state stability at higher temperature. The method, then:
Tamsulosin adipate dihydrate from Example 9 (1.0 g), is heated at 80 °C for 24 h to give a glassy solid which is crushed and homogenised.

The nature of data set [3]: Solubility in water, relative between solid forms. The note with it: 60-100 ml of water per gram of the salt, room temperature; compared with anhydrous or amorphous tamsulosin adipate. The procedure: In another embodiment of the invention tamsulosin adipate dihydrate can be prepared also from water solutions from more soluble forms of tamsulosin adipate (anhydrous or amorphous). Depending on kinetic factors two polymorphs of tamsulosin adipate dihydrate can be obtained. In another embodiment tamsulosin adipate (anhydrous or amorphous) is dissolved in a small amount of water, preferably in 60-100 ml of water per gram of the salt, most preferably in 80-90 ml per gram, preferably at room temperature. Less soluble dihydrate spontaneously precipitates from the solution, yielding tamsulosin adipate dihydrate, characterized by the peaks at about 2θ= 10.2, 10.5, 13.5, 15.5, 16.3, 21.1, 21.9° 24.3, 25.2, 28.3 and 35.9° particularly characteristic peaks are 15.5, 21.9°, 28.3, and 35.9°.

Data set [4] in a line: Solubility in lower alcohols compared with tamsulosin hydrochloride. The note with it: compared with commercially available tamsulosin hydrochloride. From the text: The adipate forms of tamsulosin prepared according to the present invention have favourable solubility properties. […] This property could be an indicator for better interactions with less polar surfaces (e.g. lipid barriers) and allows more homogeneous preparation of pharmaceutical preparations in which tamsulosin should be homogenously mixed with lipophilic excipients (such as in preparation of transdermal dosage forms). The adipate anion has been shown physiologically acceptable. The tamsulosin adipate has therefore appropriate properties for smooth interaction with hydrophilic and lipophilic surfaces.

With `CCOc1ccccc1OCCN[C@H](C)Cc1ccc(OC)c(S(N)(=O)=O)c1` [Tamsulosin adipate dihydrate, tamsulosin adipate dihydrate form A], the “stability in extremely dry conditions” value in data set [1] (below 20 % relative humidity, preferably below 10 %) is “loses water”. Further, the “stability under normal ambient conditions” value in data set [1] (normal ambient conditions) is on record as “stable”. In data set [1] (open dish, airtight chamber, 25 °C, relative humidity below 10 %, 3 days), the “solid form after storage at low humidity (XRPD)” value is given as “amorphous material”. The “solid form after heating (XRPD)” value in data set [2] (80 °C for 24 h) was “amorphous material with traces of anhydrous crystalline form”. In addition, the “stability at higher temperatures” value in data set [2] (preferably above 70 °C, most preferably above 80 °C) was “loses water”. The “solubility in water relative to other forms” value in data set [3] is listed as “Less soluble”.

`CCOc1ccccc1OCCN[C@H](C)Cc1ccc(OC)c(S(N)(=O)=O)c1` [Tamsulosin adipate, tamsulosin adipate]: the “solubility in lower alcohols” value in data set [4] is “more soluble in lower alcohols, than the commercially available tamsulosin hydrochloride”.
